# Test results as given in paper PMC7530392, “A label‐free impedance assay in endothelial cells differentiates the activation and desensitization properties of clinical S1P1 agonists” (FEBS Open Bio, 2020).
# pEC50, pIC50: −log10 of the molar value. Entries after “also recorded” stand apart in the source; their conditions may differ. Read-outs that look alike come from different tables or passages of the source.
# Assays:
# [1] = target: T1, recombinant human GRK2 (Homo sapiens, UniProt P25098); experiment: 33P-ATP flash plate kinase assay; format: biochemical; settings: 3 µM ATP, biotin-[…] substrate
# T1 construct: purchased Thermo Fisher PR4694A
# T1 sequence (P25098 1-689): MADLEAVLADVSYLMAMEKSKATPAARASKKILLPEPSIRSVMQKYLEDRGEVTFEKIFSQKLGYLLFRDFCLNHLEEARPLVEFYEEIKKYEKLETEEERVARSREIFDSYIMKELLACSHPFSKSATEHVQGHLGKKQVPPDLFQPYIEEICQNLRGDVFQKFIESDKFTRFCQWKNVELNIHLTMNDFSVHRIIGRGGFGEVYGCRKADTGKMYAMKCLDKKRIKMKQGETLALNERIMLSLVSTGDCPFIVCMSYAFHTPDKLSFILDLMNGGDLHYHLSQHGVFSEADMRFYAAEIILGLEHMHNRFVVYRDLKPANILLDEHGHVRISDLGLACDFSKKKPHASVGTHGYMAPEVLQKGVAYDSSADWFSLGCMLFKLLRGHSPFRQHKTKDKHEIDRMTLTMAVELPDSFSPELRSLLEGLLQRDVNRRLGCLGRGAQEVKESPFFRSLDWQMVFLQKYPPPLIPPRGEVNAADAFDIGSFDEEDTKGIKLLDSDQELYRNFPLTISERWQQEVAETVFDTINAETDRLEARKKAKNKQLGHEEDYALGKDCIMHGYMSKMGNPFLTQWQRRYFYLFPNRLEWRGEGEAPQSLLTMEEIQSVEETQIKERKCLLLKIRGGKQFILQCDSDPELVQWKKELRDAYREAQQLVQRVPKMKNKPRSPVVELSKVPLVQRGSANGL
# [2] = test system: human S1P1; experiment: β-arrestin recruitment assay in PathHunter cells overexpressing human S1P1; format: cell-based; settings: read-out: IC50 inhibition of β-arrestin recruitment
# Experimental: The cellular potency of the GRK2 inhibitor was determined using a β‐arrestin recruitment assay in PathHunter® cells overexpressing human S1P1 (Eurofins DiscoverX Corporation, San Diego, CA, USA; catalogue number 93‐0207C2) as described. The mean IC50 from at least 3 separate experiments was reported.
# [3] = target: T2, S1P1 (Homo sapiens, UniProt P21453); experiment: Label-free impedance assay in HUVEC, first stimulation (early and late BNCI response); format: cell-based; settings: for Late phase Max: determined manually for bell-shaped responses; for Early phase Max: BNCI curve maximum; for Early phase Max / Early phase Min / Early phase Hill slope: early response; for Early phase Min: BNCI curve minimum; for Emax: read-out: Maximum BNCI in late response as % of E max in early response; for pEC50: first stimulation, geometric mean; for Impedance profile in the presence of the GRK2 inhibitor: 10 µM GRK2 inhibitor, over 60 min
# T2 construct: host or cells: HUVEC (pooled donors)
# T2 sequence (P21453 whole entry): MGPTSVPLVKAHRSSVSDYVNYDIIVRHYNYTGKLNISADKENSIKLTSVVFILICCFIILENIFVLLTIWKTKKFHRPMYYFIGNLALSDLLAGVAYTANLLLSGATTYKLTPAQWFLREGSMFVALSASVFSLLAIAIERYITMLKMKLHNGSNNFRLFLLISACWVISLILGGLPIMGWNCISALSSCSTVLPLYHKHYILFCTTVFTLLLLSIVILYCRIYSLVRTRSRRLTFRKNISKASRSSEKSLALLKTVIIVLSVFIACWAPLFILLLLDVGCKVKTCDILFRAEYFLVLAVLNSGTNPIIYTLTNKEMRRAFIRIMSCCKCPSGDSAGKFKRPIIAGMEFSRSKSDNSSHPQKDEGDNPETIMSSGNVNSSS
# Experimental: (§1) HUVECs from pooled donors (PromoCell GmbH, Heidelberg, Germany, C‐12203) were seeded at 10 000 cells per well, in complete medium (C2210, C39210) containing 2% fetal bovine serum (FBS), in 96‐well collagen‐I coated E‐plates. Cells were allowed to attach and proliferate for 6 h, followed by overnight serum starvation in medium containing 0.1% FBS. Electrical impedance was measured continuously with RTCA‐MP station (xCELLigence RTCA, ACEA‐Biosciences, San Diego, CA, USA), according to the manufacturer’s protocol, and expressed as baseline normalized cell index (BNCI) using RTCA2.0 software. Impedance measurements were analyzed for 60 min following addition of test compounds or DMSO control, and the early (peak response at 8–10 min) and late response (at 60 min) was used for further analysis. Cells were then washed in medium containing 0.1% FBS for 5.5 h. The effect of each test compound to desensitize the response to a second stimulation with the natural ligand S1P (80 nM) was measured in the same wells and expressed as the AUC0–60 min of the S1P‐induced BNCI response. […] The baseline for the BNCI calculation was the respective vehicle responses for the first (0.1% DMSO) and second stimulations (2.5 µg·mL^−1 BSA). When tested, 10 µM GRK2 inhibitor was pretreated with cells for 2 h prior to addition of test compounds and its effect on early and late responses measured as above. All experiments were repeated on at least 3 separate occasions.
# Effective concentration corresponding to half of the difference between the maximum and minimum effect (EC50) of agonists was determined with SAS procedure NLIN in SAS system release 9.1 under UNIX via BIOSTAT@T‐SPEED‐LTS v2.0 internal software using the 4‐parameter logistical model.
# [4] = target: T2, S1P1; experiment: Desensitization of S1P-induced BNCI response in HUVEC (second stimulation with 80 nM S1P); format: cell-based; settings: for Desensitization Max: S1P-induced BNCI response curve maximum; for Desensitization Max / Desensitization Min / Desensitization Hill slope: arithmetic mean; for Desensitization Min: S1P-induced BNCI response curve minimum; for pIC50: absolute 50% reduction of control S1P (80 nM)-induced BNCI AUC0–60 min after 5.5 h wash, geometric mean, read-out: Desensitization IC50 [95% CI]
# Experimental: as §1
# The activation‐to‐desensitization ratio was expressed as IC50/EC50 for early phase. EC50, IC50, and activation‐to‐desensitization ratio were reported as geometric mean with 95% confidence intervals.
# [5] = cited from earlier work
# [6] = test system: lymphocytes; settings: approved dose in MS; no reference given; cited from earlier work
# [7] = BNCI at 60 min, arithmetic mean
# [8] = late (60 min) versus early phase
# [9] = BNCI peak response at 8–10 min, read-out: Early phase EC50 [95% CI]
Shape of concentration–effect relationship in the late response ([3]; BNCI at 60 min),"Late phase Max [3, 7]",Early phase Max ([3]; arithmetic mean),Early phase Min ([3]; arithmetic mean),Early phase Hill slope ([3]; arithmetic mean),"Emax [3, 8] [%]","pEC50 [3, 9]",Structure (SMILES),Desensitization Max [4],Desensitization Min [4],Desensitization Hill slope [4],Volume of distribution in human [5],Lymphocyte reduction [6],pIC50 [4],Impedance profile in the presence of the GRK2 inhibitor [3],further results
,,,,,,,"O=C(NCc1ccc2onc(NCc3ccccc3C(F)(F)F)c2c1)c1ccc2[nH]ncc2c1 [GRK2 inhibitor, 1H‐Indazole‐5‐carboxylic acid [3‐(2‐trifluoromethyl‐benzylamino)‐1,2‐benzisoxazol‐5‐ylmethyl]‐amide]",,,,,,,,pIC50 [1]: 7.36; pIC50 [2]: 5.96
bell‐shaped,0.234,0.461,0.188,1.1,51,,"CC(C)Oc1ccc(-c2nc(-c3cccc4c3CC[C@@H]4NCCO)no2)cc1C#N [Ozanimod, ozanimod]",91.5,−13.9,−1.5,5590 [5] L,55%,,,
bell‐shaped,0.468,0.582,0.175,1.2,81,8.62,"CCC/N=C1\S/C(=C\c2ccc(OC[C@H](O)CO)c(Cl)c2)C(=O)N1c1ccccc1C [Ponesimod, ponesimod]",79.3,−38.2,−0.9,160 [37] L,,7.74,,"Activation-to-desensitization ratio [95% CI] ([4]; desensitization IC50 / early phase EC50, geometric mean): 7.66 (3.41–17.2); S1P-induced BNCI response after preincubation at the highest concentrations tested ([4]; second stimulation with S1P): fall below the baseline"
bell‐shaped,0.150,0.440,0.012,0.7,34,9.01,"CCc1cc(/C(C)=N/OCc2ccc(C3CCCCC3)c(C(F)(F)F)c2)ccc1CN1CC(C(=O)O)C1 [Siponimod, siponimod]",96.8,−16.3,−1.0,,70–80%,9.78,sustained BNCI increase with no signal decline over 60 min,"Barrier effect in late response in the presence of the GRK inhibitor ([3]; 10 µM GRK inhibitor, same concentrations that gave negative BNCI without inhibitor): improved barrier integrity; Late response BNCI at highest concentrations (barrier effect) ([3]; 60 min, absence of GRK inhibitor): endothelial barrier disruption; also recorded: concentration‐dependent decrease to negative BNCI values"
,,,,,,,CCCCCCCCc1ccc(CCC(N)(CO)CO)cc1 [fingolimod],,,,,70–80%,,,

Structure (SMILES),Shape of concentration–effect relationship in the late response ([3]; BNCI at 60 min),"Late phase Max [3, 7]",Early phase Max ([3]; arithmetic mean),Early phase Min ([3]; arithmetic mean),Early phase Hill slope ([3]; arithmetic mean),"Emax [3, 8] [%]","pEC50 [3, 9]",Desensitization Max [4],Desensitization Min [4],Desensitization Hill slope [4],Volume of distribution in human [5],Lymphocyte reduction [6],pIC50 [4],Impedance profile in the presence of the GRK2 inhibitor [3],further results
Cc1cc(-c2nc3cnc(Oc4cccc(Cl)c4)nc3o2)cc(C)c1OCC(=O)O [SAR247799],,0.425,0.527,0.101,1.0,,7.58,89.3,1.1,−1.9,7–23 [13] L,,5.53,sustained BNCI increase with no signal decline over 60 min,"Late phase Hill slope [3, 7]: 0.7; Late phase Min [3, 7]: 0.045; pEC50 ([3]; BNCI at 60 min, read-out: Late phase EC50 [95% CI]): 7.37; Maximum BNCI in late response as % of E max in early response [3, 8]: 81%; Further increase of late response by presence of GRK inhibitor ([3]; late response, 10 µM GRK inhibitor pretreated 2 h): 2 fold"
